Reference: patent publication US20260042764A1, “COMPOSITIONS AND METHODS FOR INHIBITION OF KRAS” (TheRas, Inc., priority 2022, published 2026)
pIC50: −log10 of the molar value.

Key:
GP2d cells (KRAS G12D) = assay: Cell-based pERK HTRF assay in GP2d cell (Biological Example 2); conditions: GP2d (KRAS G12D) cells
In short: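 Treatment with test compounds lasted one hour in DMEM containing 10% FBS, with DMSO held at 0.25%. Dilution series: 9 points, half-log spacing, highest 1 μM or 100 nM. Lysates were incubated 4–24 h at room temperature with antibody mix, then HTRF was read at 320 nm excitation.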

[1] = biological target: T1, Avi-KRAS G12D (2-169) GTP/RAF1 RBD-3xFLAG (51-131) (Homo sapiens, UniProt P01116, G12D); assay: Raf1-KRAS G12D-GTP disruption HTRF assay (Biological Example 3); assay type: binding; conditions: KRAS G12D, GTP-loaded
T1 construct: Avi-KRAS G12D (2-169)
T1 sequence (P01116 2-169 isoform P01116-2 G12D): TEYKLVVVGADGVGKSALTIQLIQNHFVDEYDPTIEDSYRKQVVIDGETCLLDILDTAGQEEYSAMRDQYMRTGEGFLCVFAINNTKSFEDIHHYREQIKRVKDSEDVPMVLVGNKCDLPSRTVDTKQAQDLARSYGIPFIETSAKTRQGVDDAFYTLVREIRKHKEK
In short: (§1)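 HTRF PPI read-out (ex 320 nm, em 615 nm) after 1 h RT incubation with shaking; data as % activity vs DMSO (100%), IC50 from curve fit. Complex 50 nM, RBD reagent 75 nM; compound 30-0.005 μM, 3-fold.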

[2] = biological target: T2, Avi-KRAS G12C (2-169) GTP/RAF1 RBD-3xFLAG (51-131) (Homo sapiens, UniProt P01116, G12C); assay: Raf1-KRAS G12C-GTP disruption HTRF assay (Biological Example 3); assay type: binding; conditions: KRAS G12C, GTP-loaded
T2 construct: Avi-KRAS G12C (2-169)
T2 sequence (P01116 2-169 isoform P01116-2 G12C): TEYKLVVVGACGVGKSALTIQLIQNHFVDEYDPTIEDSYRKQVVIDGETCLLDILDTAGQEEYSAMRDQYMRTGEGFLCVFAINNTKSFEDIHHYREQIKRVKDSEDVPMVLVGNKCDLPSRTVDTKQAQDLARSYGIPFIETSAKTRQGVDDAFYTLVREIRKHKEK
In short: as §1

[3] = biological target: T3, Avi-KRAS G12V (2-169) GTP/RAF1 RBD-3xFLAG (51-131) (Homo sapiens, UniProt P01116, G12V); assay: Raf1-KRAS G12V-GTP disruption HTRF assay (Biological Example 3); assay type: binding; conditions: KRAS G12V, GTP-loaded
T3 construct: Avi-KRAS G12V (2-169)
T3 sequence (P01116 2-169 isoform P01116-2 G12V): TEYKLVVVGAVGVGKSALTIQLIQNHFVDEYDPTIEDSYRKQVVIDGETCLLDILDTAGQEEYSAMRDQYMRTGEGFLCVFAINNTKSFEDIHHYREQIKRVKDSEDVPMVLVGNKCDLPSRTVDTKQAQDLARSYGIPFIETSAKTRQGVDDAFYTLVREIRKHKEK
In short: as §1

[4] = biological target: T4, Avi-KRAS WT (2-169) GTP/RAF1 RBD-3xFLAG (51-131) (Homo sapiens, UniProt P01116); assay: Raf1-KRAS WT-GTP disruption HTRF assay (Biological Example 3); assay type: binding; conditions: KRAS WT, GTP-loaded
T4 construct: Avi-KRAS WT (2-169)
T4 sequence (P01116 2-169 isoform P01116-2): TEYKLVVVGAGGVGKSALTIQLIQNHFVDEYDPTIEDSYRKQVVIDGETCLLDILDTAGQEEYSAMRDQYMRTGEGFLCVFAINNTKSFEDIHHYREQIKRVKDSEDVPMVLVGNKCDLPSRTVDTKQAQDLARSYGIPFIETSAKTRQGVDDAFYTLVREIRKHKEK
In short: as §1

SW620 cells (KRAS G12V) = assay: Cell-based pERK HTRF assay in SW620 cell (Biological Example 4)
In short: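 SW620 (KRAS G12V) cells seeded at 3×10^4/well in RPMI, 10% FBS, then treated next day for 4 h with a 9-point half-log series from 1 μM top (0.25% DMSO). Lysates analyzed for pERK by HTRF (Eu cryptate/d2 antibodies, 4–24 h at room temperature), excitation 320 nm, emission 615 nm.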

[5] = Homo sapiens, SW-620, SW620 (KRAS G12V) cells

pIC50 (GP2d cells (KRAS G12D); GP2d) | pIC50 [1] | pIC50 [2] | pIC50 [3] | pIC50 [4] | pIC50 (SW620 cells (KRAS G12V); [5]) | pIC50 (GP2d cells (KRAS G12D)) | pIC50 (SW620 cells (KRAS G12V); SW620 (KRAS G12V) cells) | SMILES
– | 6.00 to 7.00 | 5.00 to 6.00 | 5.00 to 6.00 | 5.00 to 6.00 | – | > 7.00 | > 7.00 | CCN(c1nc(OC[C@@]23CCCN2C[C@H](F)C3)nc2c(F)c(-c3ccc(F)c4sc(N)c(C#N)c34)c(C(F)(F)F)cc12)[C@H]1C[C@@H](C(=O)N(C)C)C1 (atropisomer, axis not shown) [Compound 957]
> 7.00 | 6.00 to 7.00 | 5.00 to 6.00 | 5.00 to 6.00 | 5.00 to 6.00 | 6.00 to 7.00 | – | – | CN(Cc1ncoc1C#N)c1nc(OC[C@@]23CCCN2C[C@H](F)C3)nc2c(F)c(-c3ccc(F)c4sc(N)c(C#N)c34)c(C(F)(F)F)cc12 (atropisomer, axis not shown) [Compound 953]
> 7.00 | < 5.00 | < 5.00 | < 5.00 | < 5.00 | > 7.00 | – | – | CN(c1nc(OC[C@@]23CCCN2C[C@H](F)C3)nc2c(F)c(-c3ccc(F)c4sc(N)c(C#N)c34)c(C(F)(F)F)cc12)[C@H]1CCCc2ccncc21 (atropisomer, axis not shown) [Compound 971]
6.00 to 7.00 | < 5.00 | < 5.00 | < 5.00 | < 5.00 | 6.00 to 7.00 | – | – | N#Cc1c(N)sc2c(F)ccc(-c3c(C(F)(F)F)cc4c(N5CCCC(c6cccnc6)C5)nc(OC[C@@]56CCCN5C[C@H](F)C6)nc4c3F)c12 (stereo partly drawn) [Compound 944]
> 7.00 | 5.00 to 6.00 | 5.00 to 6.00 | < 5.00 | 5.00 to 6.00 | > 7.00 | – | – | CCN(c1nc(OC[C@@]23CCCN2C[C@H](F)C3)nc2c(F)c(-c3ccc(F)c4sc(N)c(C#N)c34)c(C(F)(F)F)cc12)[C@@H]1CCN2C(=O)OC[C@H]12 (atropisomer, axis not shown) [Compound 941]
– | 5.00 to 6.00 | < 5.00 | 5.00 to 6.00 | < 5.00 | – | > 7.00 | > 7.00 | CN(c1nc(OCC23CCCN2CC(F)C3)nc2c(F)c(-c3ccc(F)c4sc(N)c(C#N)c34)c(C(F)(F)F)cc12)C1CCc2ccncc21 (stereo not drawn) [Compound 961]
> 7.00 | 6.00 to 7.00 | 6.00 to 7.00 | 6.00 to 7.00 | 5.00 to 6.00 | > 7.00 | – | – | CCN(c1nc(OC[C@@]23CCCN2C[C@H](F)C3)nc2c(F)c(-c3ccc(F)c4sc(N)c(C#N)c34)c(C(F)(F)F)cc12)[C@H]1CCN(C(=O)c2ncc(C#N)s2)C1 (atropisomer, axis not shown) [Compound 956]
> 7.00 | 6.00 to 7.00 | 6.00 to 7.00 | 6.00 to 7.00 | 6.00 to 7.00 | > 7.00 | – | – | CCN(c1nc(OC[C@@]23CCCN2C[C@H](F)C3)nc2c(F)c(-c3ccc(F)c4sc(N)c(C#N)c34)c(C(F)(F)F)cc12)[C@H]1C[C@H](C)N(C(=O)C2CC(OC)C2)C1 (stereo partly drawn) [Compound 928]
> 7.00 | 6.00 to 7.00 | 6.00 to 7.00 | 6.00 to 7.00 | 6.00 to 7.00 | > 7.00 | – | – | CN(c1nc(OC[C@@]23CCCN2C[C@H](F)C3)nc2c(F)c(-c3ccc(F)c4sc(N)c(C#N)c34)c(C(F)(F)F)cc12)[C@H]1CC(=O)N2CCC[C@H]12 (atropisomer, axis not shown) [Compound 934]

Continued, compound first:

SMILES | pIC50 (GP2d cells (KRAS G12D); GP2d) | pIC50 [1] | pIC50 [2] | pIC50 [3] | pIC50 [4] | pIC50 (SW620 cells (KRAS G12V); [5]) | pIC50 (GP2d cells (KRAS G12D)) | pIC50 (SW620 cells (KRAS G12V); SW620 (KRAS G12V) cells)
CCN(c1nc(OC[C@@]23CCCN2C[C@H](F)C3)nc2c(F)c(-c3ccc(F)c4sc(N)c(C#N)c34)c(C(F)(F)F)cc12)[C@H]1CCN(C(=O)[C@@H]2CC2(F)F)[C@H]1C (atropisomer, axis not shown) [Compound 887] | > 7.00 | 5.00 to 6.00 | 5.00 to 6.00 | 5.00 to 6.00 | 5.00 to 6.00 | 6.00 to 7.00 | – | –
CCN(c1nc(OC[C@@]23CCCN2C[C@H](F)C3)nc2c(F)c(-c3ccc(F)c4sc(N)c(C#N)c34)c(C(F)(F)F)cc12)[C@H]1C[C@H](C)N(C(=O)c2cocn2)C1 (atropisomer, axis not shown) [Compound 914] | > 7.00 | 6.00 to 7.00 | 6.00 to 7.00 | ≥ 7.00 | 6.00 to 7.00 | > 7.00 | – | –
CCN(c1nc(OC[C@@]23CCCN2C[C@H](F)C3)nc2c(F)c(-c3ccc(F)c4sc(N)c(C#N)c34)c(C(F)(F)F)cc12)[C@H]1CC[C@](C)(C(=O)N(C)C)C1 (atropisomer, axis not shown) [Compound 894] | > 7.00 | 5.00 to 6.00 | 5.00 to 6.00 | 5.00 to 6.00 | 5.00 to 6.00 | > 7.00 | – | –
COC(=O)N1CC[C@H](N(CCF)c2nc(OC[C@@]34CCCN3C[C@H](F)C4)nc3c(F)c(-c4ccc(F)c5sc(N)c(C#N)c45)c(C(F)(F)F)cc23)C1 (atropisomer, axis not shown) [Compound 829] | > 7.00 | 6.00 to 7.00 | 6.00 to 7.00 | 6.00 to 7.00 | 5.00 to 6.00 | > 7.00 | – | –
CCN(c1nc(OC[C@@]23CCCN2C[C@H](F)C3)nc2c(F)c(-c3ccc(F)c4sc(N)c(C#N)c34)c(C(F)(F)F)cc12)[C@H]1CCN(C(=O)[C@@H]2CCO2)[C@@H]1C (atropisomer, axis not shown) [Compound 918] | > 7.00 | ≥ 7.00 | ≥ 7.00 | ≥ 7.00 | ≥ 7.00 | > 7.00 | – | –
CCN(c1nc(OC[C@@]23CCCN2C[C@H](F)C3)nc2c(F)c(-c3ccc(F)c4sc(N)c(C#N)c34)c(C(F)(F)F)cc12)[C@H]1CCN(C(=O)N2CC3(CCO3)C2)C1 (atropisomer, axis not shown) [Compound 851] | > 7.00 | 6.00 to 7.00 | 6.00 to 7.00 | 6.00 to 7.00 | 6.00 to 7.00 | > 7.00 | – | –
CCN(c1nc(OC[C@@]23CCCN2C[C@H](F)C3)nc2c(F)c(-c3ccc(F)c4sc(N)c(C#N)c34)c(C(F)(F)F)cc12)[C@H]1C[C@H](C)N(C(=O)C2CC2(F)F)C1 (stereo partly drawn) [Compound 881] | > 7.00 | 6.00 to 7.00 | 6.00 to 7.00 | 6.00 to 7.00 | 6.00 to 7.00 | > 7.00 | – | –
CCN(c1nc(OC[C@@]23CCCN2C[C@H](F)C3)nc2c(F)c(-c3ccc(F)c4sc(N)c(C#N)c34)c(C(F)(F)F)cc12)[C@H]1C[C@H]2CC(C)(C)C(=O)N2C1 (atropisomer, axis not shown) [Compound 864] | > 7.00 | ≥ 7.00 | 6.00 to 7.00 | 6.00 to 7.00 | 6.00 to 7.00 | > 7.00 | – | –
CN(Cc1ccncc1)c1nc(OC[C@@]23CCCN2C[C@H](F)C3)nc2c(F)c(-c3ccc(F)c4sc(N)c(C#N)c34)c(C(F)(F)F)cc12 (atropisomer, axis not shown) [Compound 867] | > 7.00 | 5.00 to 6.00 | 5.00 to 6.00 | 5.00 to 6.00 | 5.00 to 6.00 | > 7.00 | – | –
CCN(c1nc(OC[C@@]23CCCN2C[C@H](F)C3)nc2c(F)c(-c3ccc(F)c4sc(N)c(C#N)c34)c(C(F)(F)F)cc12)[C@H]1C[C@H](C)N(C(=O)OC2CC(OC)C2)C1 (stereo partly drawn) [Compound 907] | > 7.00 | 6.00 to 7.00 | 6.00 to 7.00 | 6.00 to 7.00 | 6.00 to 7.00 | > 7.00 | – | –
[2H][C@]1(N(CC)c2nc(OC[C@@]34CCCN3C[C@H](F)C4)nc3c(F)c(-c4ccc(F)c5sc(N)c(C#N)c45)c(C(F)(F)F)cc23)CCN(C(=O)C(C)C)C1 (atropisomer, axis not shown) [Compound 860] | > 7.00 | 6.00 to 7.00 | 6.00 to 7.00 | 6.00 to 7.00 | 6.00 to 7.00 | > 7.00 | – | –
CCN(c1nc(OC[C@@]23CCCN2C[C@H](F)C3)nc2c(F)c(-c3ccc(F)c4sc(N)c(C#N)c34)c(C(F)(F)F)cc12)[C@H]1CCN(C(=O)OC2CC(F)(F)C2)C1 (atropisomer, axis not shown) [Compound 830] | > 7.00 | 6.00 to 7.00 | 6.00 to 7.00 | 6.00 to 7.00 | 6.00 to 7.00 | > 7.00 | – | –
CCN(c1nc(OC[C@@]23CCCN2C[C@H](F)C3)nc2c(F)c(-c3ccc(F)c4sc(N)c(C#N)c34)c(C(F)(F)F)cc12)[C@H]1C[C@H]2[C@@H](C)N(C)C(=O)N2C1 (atropisomer, axis not shown) [Compound 910] | > 7.00 | 6.00 to 7.00 | 6.00 to 7.00 | 6.00 to 7.00 | 6.00 to 7.00 | > 7.00 | – | –
